These results are taken from patent publication US11292821B2, “Peptides and combination of peptides for use in immunotherapy against lung cancer, including NSCLC, SCLC and other cancers” (Immatics Biotechnologies GmbH, priority 2017, dated 2022).

The subject of the test is HLA-B*44. As to the kind of experiment: MHC binding assay (UV-ligand exchange, β2m ELISA). The arrangement: species or system human. As to conditions: UV-ligand exchange, β2m ELISA. In general terms: In an ELISA, binding on a coated surface is turned into a signal by an enzyme label.
Regarding “359 (DELFSIALY; listed as Homo sapiens) [compound 359]”, the “Peptide exchange (peptide exchange yield, MHC class I binding score)” value (“Peptide exchange” for short) is recorded as ““+++” (>50 =+++)”.

As for “362 (SEKGVIQVY; listed as Homo sapiens) [compound 362]”, the “Peptide exchange” value is listed as ““+++” (>50 =+++)”.

On to “367 (GEVHPSEMI; listed as Homo sapiens) [compound 367]”, for which the “Peptide exchange” value is given as ““+++” (>50 =+++)”.

As for “344 (EEATGQFHVY; listed as Homo sapiens) [compound 344]”, the “Peptide exchange” value is on record as ““+++” (>50 =+++)”.

With “350 (GECDVFKEIL; listed as Homo sapiens) [compound 350]”, the “Peptide exchange” value is ““+++” (>50 =+++)”.

With “365 (SEMNVNMKY; listed as Homo sapiens) [compound 365]”, the “Peptide exchange” value is recorded as ““++++” (>75% = ++++)”.

With “364 (AETPIQNVI; listed as Homo sapiens) [compound 364]”, the “Peptide exchange” value is ““+++” (>50 =+++)”.

“486 (SEDDPILQI; listed as Homo sapiens) [compound 486]”: the “Peptide exchange” value is reported as ““+++” (>50 =+++)”.

Regarding “352 (NEVLTYIKF; listed as Homo sapiens) [compound 352]”, the “Peptide exchange” value was ““++++” (>75% = ++++)”.

On to “347 (ALNPYQYQY; listed as Homo sapiens) [compound 347]”, for which the “Peptide exchange” value is on record as ““+++” (>50 =+++)”.

With “356 (EEGRVYLF; listed as Homo sapiens) [compound 356]”, the “Peptide exchange” value is listed as ““+++” (>50 =+++)”.

Take “332 (MEVPVIKI; listed as Homo sapiens) [compound 332]”: the “Peptide exchange” value is ““++” (>20% = ++)”.

Regarding “488 (TEFPIIKMY; listed as Homo sapiens) [compound 488]”, the “Peptide exchange” value is on record as ““++” (>20% = ++)”.

In the case of “354 (TEDPTILRI; listed as Homo sapiens) [compound 354]”, the “Peptide exchange” value is listed as ““+++” (>50 =+++)”.

For “371 (GELALKKKI; listed as Homo sapiens) [compound 371]”, the “Peptide exchange” value is ““++” (>20% = ++)”.

“346 (VEAPGPVHVYW; listed as Homo sapiens) [compound 346]”: the “Peptide exchange” value is reported as ““++++” (>75% = ++++)”.

For “358 (KEADIHFLI; listed as Homo sapiens) [compound 358]”, the “Peptide exchange” value is ““++++” (>75% = ++++)”.

With “341 (EEIEGKGSFTYF; listed as Homo sapiens) [compound 341]”, the “Peptide exchange” value is ““+++” (>50 =+++)”.

As for “370 (YEDLSQKY; listed as Homo sapiens) [compound 370]”, the “Peptide exchange” value is listed as ““+” (>10% = +)”.

As for “480 (GEVSGLTKDF; listed as Homo sapiens) [compound 480]”, the “Peptide exchange” value was ““++” (>20% = ++)”.

Take “369 (EEIERFFKL; listed as Homo sapiens) [compound 369]”: the “Peptide exchange” value is recorded as ““+++” (>50 =+++)”.

Take “483 (EENDQSTHKW; listed as Homo sapiens) [compound 483]”: the “Peptide exchange” value is ““+++” (>50 =+++)”.

Consider “481 (RELQHEHSL; listed as Homo sapiens) [compound 481]”, for which the “Peptide exchange” value was ““+++” (>50 =+++)”.

Consider “372 (TEGIIMKDF; listed as Homo sapiens) [compound 372]”, for which the “Peptide exchange” value was ““++” (>20% = ++)”.

In the case of “319 (AEMLERVIKNY; listed as Homo sapiens) [compound 319]”, the “Peptide exchange” value is reported as ““++++” (>75% = ++++)”.
